We go through 25 compounds from patent publication US11479551B2, “MTA-cooperative PRMT5 inhibitors” (Mirati Therapeutics, Inc., priority 2019, dated 2022).

“And” between values parts separate entries of the source, which are not always exact repeats. Equal values may be shown once.

The target in one assay is PRMT5/MEP50 complex (Homo sapiens (Human), UniProt O14744). Nature of the assay: PRMT5:MEP50 HotSpot Assay (full-length histone H2A substrate, plus and minus MTA). Format: biochemical. Conditions: IC50 + 2 μM MTA, in the presence of 2 μM MTA. How it is done: The PRMT5 inhibitory activity of compounds of the present invention was determined using either a PRMT5:MEP50 FlashPlate Assay (Reaction Biology Corporation) or a PRMT5:MEP50 HotSpot Assay (Reaction Biology Corporation).
Chain of PRMT5/MEP50 complex (O14744 2-637): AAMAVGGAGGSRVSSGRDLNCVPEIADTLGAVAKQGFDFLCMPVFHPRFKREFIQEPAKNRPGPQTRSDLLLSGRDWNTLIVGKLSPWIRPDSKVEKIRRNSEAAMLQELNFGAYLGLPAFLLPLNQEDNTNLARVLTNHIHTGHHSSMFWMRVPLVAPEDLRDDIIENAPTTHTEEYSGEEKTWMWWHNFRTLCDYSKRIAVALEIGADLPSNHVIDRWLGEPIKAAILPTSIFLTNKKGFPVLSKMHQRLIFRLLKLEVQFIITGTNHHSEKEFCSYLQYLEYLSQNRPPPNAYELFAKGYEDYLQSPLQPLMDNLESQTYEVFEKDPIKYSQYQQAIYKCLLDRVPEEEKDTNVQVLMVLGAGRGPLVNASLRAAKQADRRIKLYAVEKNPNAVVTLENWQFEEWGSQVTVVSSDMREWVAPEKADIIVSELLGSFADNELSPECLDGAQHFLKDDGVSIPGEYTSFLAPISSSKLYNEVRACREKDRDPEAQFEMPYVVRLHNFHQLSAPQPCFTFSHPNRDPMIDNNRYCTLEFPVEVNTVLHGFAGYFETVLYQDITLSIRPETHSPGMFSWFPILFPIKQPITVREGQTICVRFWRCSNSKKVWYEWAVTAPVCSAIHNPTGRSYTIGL
Chain of PRMT5/MEP50 complex (Q9BQA1 2-342 partner): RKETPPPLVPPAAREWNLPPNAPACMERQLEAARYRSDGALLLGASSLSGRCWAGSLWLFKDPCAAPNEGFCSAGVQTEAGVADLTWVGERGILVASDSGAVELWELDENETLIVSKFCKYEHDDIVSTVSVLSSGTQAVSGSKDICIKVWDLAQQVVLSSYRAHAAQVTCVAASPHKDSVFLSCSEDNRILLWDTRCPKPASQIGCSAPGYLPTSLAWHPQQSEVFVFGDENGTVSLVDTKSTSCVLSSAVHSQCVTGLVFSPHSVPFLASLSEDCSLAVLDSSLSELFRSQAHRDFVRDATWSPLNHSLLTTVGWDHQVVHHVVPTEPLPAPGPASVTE
The assay uses recombinant full-length histone H2A as the PRMT5 substrate. […] The reaction was stopped and transferred to filter paper for detection. The amount of tritiated H2A in each sample was determined using a scintillation counter.
For `Cn1ncc(-c2ccc3c(=O)[nH]nc(CN)c3c2)c1-c1ccc(OC2CC2)cc1` [Example 4-136, 4-(aminomethyl)-6-(5-(4-cyclopropoxyphenyl)-1-methyl-1H-pyrazol-4-yl)phthalazin-1(2H)-one], the IC50 (as a rule, the concentration that gives 50% inhibition) was 872 nM.

As for `Cn1ncc(-c2ccc3c(=O)[nH]nc(CN)c3c2)c1-c1cccc(Cl)c1C#N` [Example 4-119, 2-(4-(4-(aminomethyl)-1-oxo-1,2-dihydrophthalazin-6-yl)-1-methyl-1H-pyrazol-5-yl)-6-chlorobenzonitrile], the IC50 was 441 nM. For the compound `Cn1ncc(-c2ccc3c(=O)[nH]nc(CN)c3c2)c1OCc1c(Cl)cccc1C#N` [Example 4-174, 2-(((4-(4-(aminomethyl)-1-oxo-1,2-dihydrophthalazin-6-yl)-1-methyl-1H-pyrazol-5-yl)oxy)methyl)-3-chlorobenzonitrile], the IC50 was above 10000 nM. `COc1ccc(-c2c(-c3ccc4c(=O)[nH]nc(CN)c4c3)cnn2C)c(C#N)c1Cl` [Example 4-170, 6-(4-(4-(aminomethyl)-1-oxo-1,2-dihydrophthalazin-6-yl)-1-methyl-1H-pyrazol-5-yl)-2-chloro-3-methoxybenzonitrile]: the IC50 was determined as 728 nM. Take `CN(C)c1c(-c2ccc3c(=O)[nH]nc(CN)c3c2)cnn1C` [Example 4-171, 4-(aminomethyl)-6-(5-(dimethylamino)-1-methyl-1H-pyrazol-4-yl)phthalazin-1(2H)-one]: the IC50 came to 4440 nM. With `N#Cc1ccc(C#N)c(-c2cncc(-c3ccc4c(=O)[nH]nc(CN)c4c3)c2)c1` [Example 8-9, 2-(5-(4-(aminomethyl)-1-oxo-1,2-dihydrophthalazin-6-yl)pyridin-3-yl)terephthalonitrile], the half-maximal inhibitory concentration (IC50) is above 10000 nM.

Consider `CCc1cccc(-c2c(-c3ccc4c(=O)[nH]nc(CN)c4c3)cnn2C)c1C#N` [Example 4-123, 2-(4-(4-(aminomethyl)-1-oxo-1,2-dihydrophthalazin-6-yl)-1-methyl-1H-pyrazol-5-yl)-6-ethylbenzonitrile], for which the IC50 stood at 549 nM. With `CC(C)Oc1cccc(-c2c(-c3ccc4c(=O)[nH]nc(CN)c4c3)cnn2C)c1C#N` [Example 4-176, 2-(4-(4-(aminomethyl)-1-oxo-1,2-dihydrophthalazin-6-yl)-1-methyl-1H-pyrazol-5-yl)-6-isopropoxybenzonitrile], the IC50 amounted to 8710 nM. With `CCOc1ccc(-c2c(-c3ccc4c(=O)[nH]nc(CN)c4c3)cnn2C)c(C#N)c1` [Example 4-173, 2-(4-(4-(aminomethyl)-1-oxo-1,2-dihydrophthalazin-6-yl)-1-methyl-1H-pyrazol-5-yl)-5-ethoxybenzonitrile], the IC50 was determined as 1600 nM. In the case of `Cn1ncc(-c2ccc3c(=O)[nH]nc(CN)c3c2)c1-c1cccc[n+]1[O-]` [Example 4-120, 2-(4-(4-(aminomethyl)-1-oxo-1,2-dihydrophthalazin-6-yl)-1-methyl-1H-pyrazol-5-yl)pyridine 1-oxide], the IC50 was above 10000 nM. Same read-out and setting: as for `NCc1n[nH]c(=O)c2ccc(-c3cnn4ccc(Oc5ccccc5)cc34)cc12` [Example 4-114, 4-(aminomethyl)-6-(5-phenoxypyrazolo[1,5-a]pyridin-3-yl)phthalazin-1(2H)-one], the figure is 486 nM; as for `Cn1ncc(-c2ccc3c(=O)[nH]nc(CN)c3c2)c1-c1ccccc1Cl` [Example 4-143, 4-(aminomethyl)-6-(5-(2-chlorophenyl)-1-methyl-1H-pyrazol-4-yl)phthalazin-1(2H)-one], 1170 nM. As to `CN(c1cncc(-c2ccc3c(=O)[nH]nc(CN)c3c2)c1)c1cccc2cccnc12` [Example 4-122, 4-(aminomethyl)-6-(5-(methyl(quinolin-8-yl)amino)pyridin-3-yl)phthalazin-1(2H)-one], the IC50 came to 3820 nM.

With `Cn1ncc(-c2ccc3c(=O)[nH]nc(CN)c3c2)c1-c1cccc(OC2CCC2)c1C#N` [Example 4-177, 2-(4-(4-(aminomethyl)-1-oxo-1,2-dihydrophthalazin-6-yl)-1-methyl-1H-pyrazol-5-yl)-6-cyclobutoxybenzonitrile], the IC50 was 5970 nM.

Consider `N#Cc1ccccc1-c1c(-c2ccc3c(=O)[nH]nc(CN)c3c2)cnn1CCO` [Example 4-193, 2-(4-(4-(aminomethyl)-1-oxo-1,2-dihydrophthalazin-6-yl)-1-(2-hydroxyethyl)-1H-pyrazol-5-yl)benzonitrile], for which the IC50 is above 10000 nM. On the same count and under the same terms, as for `Cn1ncc(-c2ccc3c(=O)[nH]nc(CN)c3c2)c1OCc1cccc(Cl)c1` [Example 4-155, 4-(aminomethyl)-6-(5-((3-chlorobenzyl)oxy)-1-methyl-1H-pyrazol-4-yl)phthalazin-1(2H)-one], the figure is 3460 nM; as for `CCc1ccc(C#N)c(-c2c(-c3ccc4c(=O)[nH]nc(CN)c4c3)cnn2C)c1` [Example 4-125, 2-(4-(4-(aminomethyl)-1-oxo-1,2-dihydrophthalazin-6-yl)-1-methyl-1H-pyrazol-5-yl)-4-ethylbenzonitrile], 1000 nM. As to `Cn1ncc(-c2ccc3c(=O)[nH]nc(CN)c3c2)c1-c1cc2cccnc2cc1C#N` [Example 4-166, 6-(4-(4-(aminomethyl)-1-oxo-1,2-dihydrophthalazin-6-yl)-1-methyl-1H-pyrazol-5-yl)quinoline-7-carbonitrile], the IC50 turned out to be 4510 nM. Regarding `NCc1n[nH]c(=O)c2ccc(-c3cncc(Oc4cccc5cccnc45)c3)cc12` [Example 4-121, 4-(aminomethyl)-6-(5-(quinolin-8-yloxy)pyridin-3-yl)phthalazin-1(2H)-one], the IC50 amounted to 177 nM. For `Cn1ncc(-c2ccc3c(=O)[nH]nc(CN)c3c2)c1OCc1ccc(Cl)cc1` [Example 4-156, 4-(aminomethyl)-6-(5-((4-chlorobenzyl)oxy)-1-methyl-1H-pyrazol-4-yl)phthalazin-1(2H)-one], the IC50 turned out to be 9130 nM. On the same count and under the same terms, with `NCc1n[nH]c(=O)c2ccc(-c3cncc(C4CCCOC4)c3)cc12` (stereo not drawn) [Example 4-195, 4-(aminomethyl)-6-(5-(tetrahydro-2H-pyran-3-yl)pyridin-3-yl)phthalazin-1(2H)-one] the figure was above 10000 nM. Regarding `Cn1ncc(-c2ccc3c(=O)[nH]nc(CN)c3c2)c1-c1ccccc1C(F)F` [Example 4-153, 4-(aminomethyl)-6-(5-(2-(difluoromethyl)phenyl)-1-methyl-1H-pyrazol-4-yl)phthalazin-1(2H)-one], the concentration for half-maximal inhibition (IC50) was 1650 nM. Take `Cc1cccc(-c2c(-c3ccc4c(=O)[nH]nc(CN)c4c3)cnn2C)c1C#N` [Example 4-118, 2-(4-(4-(aminomethyl)-1-oxo-1,2-dihydrophthalazin-6-yl)-1-methyl-1H-pyrazol-5-yl)-6-methylbenzonitrile]: the IC50 came to 724 nM.

Regarding `Cn1ncc(-c2ccc3c(=O)[nH]nc(CN)c3c2)c1-c1c(F)cccc1C#N` [Example 4-152, 2-(4-(4-(aminomethyl)-1-oxo-1,2-dihydrophthalazin-6-yl)-1-methyl-1H-pyrazol-5-yl)-3-fluorobenzonitrile], the IC50 was 978 nM and 1910 nM. Same read-out and setting: as for `Cn1ncc(-c2ccc3c(=O)[nH]nc(CN)c3c2)c1-c1c(Cl)cccc1Cl` [Example 4-144, 4-(aminomethyl)-6-(5-(2,6-dichlorophenyl)-1-methyl-1H-pyrazol-4-yl)phthalazin-1(2H)-one], the figure is 454 nM.

Staying with this assay, now noted: in the absence of MTA; read-out: IC50.
`Cn1ncc(-c2ccc3c(=O)[nH]nc(CN)c3c2)c1-c1cccc(Cl)c1C#N` [Example 4-119, 2-(4-(4-(aminomethyl)-1-oxo-1,2-dihydrophthalazin-6-yl)-1-methyl-1H-pyrazol-5-yl)-6-chlorobenzonitrile]: the IC50 came to 5260 nM. Take `Cc1cccc(-c2c(-c3ccc4c(=O)[nH]nc(CN)c4c3)cnn2C)c1C#N` [Example 4-118, 2-(4-(4-(aminomethyl)-1-oxo-1,2-dihydrophthalazin-6-yl)-1-methyl-1H-pyrazol-5-yl)-6-methylbenzonitrile]: the IC50 was 9920 nM.
